# In patent US20150157588A1, “Pharmaceutical Composition Comprising Amino-Phenyl-Acetic Acid Octadec-(Z)-9-enyl Ester and Use Thereof for Treating Tumors” (Yeda Research and Development Co., Ltd., priority 2012, published 2015):
# Tested on: anti-CD3-activated T cells
# Experiment: Microarray gene expression, T cells activated by anti-CD3 antibody
# Type: cell-based, human
# Conditions: anti-CD3-activated T cells; for Fold change COL6A3: 201438_at; for Fold change CTSL: 202087_s_at; for Fold change IGF2 /// INS-IGF2: 202409_at; for Fold change IGFBP2: 202718_at; for Fold change SERPINA1: 202833_s_at; for Fold change S100A8: 202917_s_at; for Fold change MET: 203510_at; for Fold change MMP9: 203936_s_at; for Fold change LOC645619 /// LOC731007: 204347_at; for Fold change AK3L1: 204348_s_at; for Fold change SLC7A7: 204588_s_at; for Fold change SERPINB2: 204614_at; for Fold change TTK: 204822_at; for Fold change GNG4: 205184_at; for Fold change ADAMDEC1: 206134_at; for Fold change PLA2G7: 206214_at; for Fold change HCK: 208018_s_at
# Protocol: CD3 positive T cells were extracted from a healthy donor according to a standard protocol, and seeded in T cell medium including RPMI, 10% fetal calf serum, sodium pyruvate, L-Glutamine, and Penicillin/Streptomycin. Following an overnight incubation with medium, the cells were treated by incubating for 2 hours at 37° C. with amino-phenyl-acetic acid octadec-(Z)-9-enyl ester at a concentration of 10 micrograms/ml in a final volume of 10 ml in T-cell medium with or without 0.05% ethanol. After incubation, half the cells from each treatment were centrifuged and 2 ml of Tri-reagent (Sigma) were added to the pellet. The other half of the cells from each treatment were transferred to anti-CD3 antibody coated 24 well plates for an overnight incubation at 37° C. Coating plates with an anti-CD3 antibody was carried out by incubating with 2 micrograms/ml of OKT3 anti-CD3 antibody overnight at 4° C., washing three times with PBS and blocking with filtered 1% Bovine Serum Albumin for 1 hour. After activation with anti-CD3 antibody, cells were centrifuged and 2 ml of Tri-reagent were added to the pellet.
# RNA was extracted from unstimulated cells and from cells activated with anti-CD3 according to standard protocols and used for hybridization with a Human Genome U133A 2.0 (Affymetrix, Catalogue number 900468), according to the manufacturer's instructions. The results of the hybridization were read by a GeneChip scanner 3000 (Affymetrix) and analyzed by QuantArray (GSI lumonics).
# The effects of amino-phenyl-acetic acid octadec-(Z)-9-enyl ester in ethanol solution or in an aqueous vehicle (hereinafter termed “in PBS”) on gene expression in unstimulated T cells and T cells activated by anti-CD3 antibody were compared by microarray analysis.
# [1] = in ethanol solution vs untreated
smiles,measurement,setting,value
CCCCCCCC/C=C\CCCCCCCCOC(=O)C(N)c1ccccc1 (stereo not shown) [amino-phenyl-acetic acid octadec-(Z)-9-enyl ester],Fold change IL1B,"39402_at, in ethanol solution vs untreated",2.03
same,Fold change THBS1,"201109_s_at, in ethanol solution vs untreated",1.94
same,Fold Change EIF5A,"201123_s_at, in ethanol solution vs in PBS",−1.97
same,Fold change COL6A3,in ethanol solution vs in PBS,−2.16
same,Fold change COL6A3,[1],−2.06
same,Fold change BNIP3,"201848_s_at, in ethanol solution vs in PBS",−3.39
same,Fold change BNIP3,"201848_s_at, in ethanol solution vs untreated",−2.99
same,Fold change BNIP3,"201849_at, in ethanol solution vs in PBS",−3.34
same,Fold change BNIP3,"201849_at, in ethanol solution vs untreated",−3.24
same,Fold change CTSL,in ethanol solution vs in PBS,2.18
same,Fold change CTSL,[1],2.30
same,Fold change IGF2 /// INS-IGF2,in ethanol solution vs in PBS,−2.42
same,Fold change IGF2 /// INS-IGF2,[1],−2.17
same,Fold change CYP1B1,"202436_s_at, in ethanol solution vs untreated",2.02
same,Fold change IGFBP2,in ethanol solution vs in PBS,−6.02
same,Fold change IGFBP2,[1],−5.13
same,Fold change SERPINA1,in ethanol solution vs in PBS,1.97
same,Fold change SERPINA1,[1],2.12
same,Fold change S100A8,in ethanol solution vs in PBS,2.11
same,Fold change S100A8,[1],2.24
same,Fold Change GBE1,"203282_at, in ethanol solution vs in PBS",−1.92
same,Fold change LMAN1,"203294_s_at, in PBS vs untreated",1.91
same,Fold Change ABCA1,"203504_s_at, in ethanol solution vs in PBS",−1.90
same,Fold change MET,in ethanol solution vs in PBS,2.76
same,Fold change MET,[1],2.35
same,Fold change DFNA5,"203695_s_at, in ethanol solution vs untreated",1.92
same,Fold change MMP9,in ethanol solution vs in PBS,2.67
same,Fold change MMP9,[1],2.74
same,Fold Change CA12,"203963_at, in ethanol solution vs in PBS",2.02
same,Fold Change CA12,"203963_at, in ethanol solution vs untreated",1.91
same,Fold Change CDC6,"203967_at, in ethanol solution vs in PBS",−2.03
same,Fold change FCER1G,"204232_at, in ethanol solution vs untreated",1.94
same,Fold change LOC645619 /// LOC731007,in ethanol solution vs in PBS,−2.52
same,Fold change LOC645619 /// LOC731007,[1],−2.25
same,Fold change AK3L1,in ethanol solution vs in PBS,−3.93
same,Fold change AK3L1,[1],−3.14
same,Fold change MMP1,"204475_at, in ethanol solution vs untreated",2.32
same,Fold Change CA12,"204508_s_at, in ethanol solution vs in PBS",2.09
same,Fold change ABCG1,"204567_s_at, in ethanol solution vs untreated",−2.12
same,Fold change SLC7A7,in ethanol solution vs in PBS,2.05
same,Fold change SLC7A7,[1],2.07
same,Fold change EXO1,"204603_at, in ethanol solution vs untreated",−2.25
same,Fold change SERPINB2,in ethanol solution vs in PBS,2.60
same,Fold change SERPINB2,[1],3.14
same,Fold change TTK,in ethanol solution vs in PBS,−2.04
same,Fold change TTK,[1],−2.40
same,Fold change DOCK4,"205003_at, in ethanol solution vs untreated",2.33
same,Fold change RAD51,"205024_s_at, in ethanol solution vs untreated",−2.09
same,Fold change IL1B,"205067_at, in ethanol solution vs untreated",2.03
same,Fold change GNG4,in ethanol solution vs in PBS,2.04
same,Fold change GNG4,[1],2.23
same,Fold change IL6,"205207_at, in ethanol solution vs untreated",1.95
same,Fold change probeset 205296_at,"205296_at, in ethanol solution vs untreated",−2.02
same,Fold Change WDR76,"205519_at, in ethanol solution vs in PBS",−2.42
same,Fold change AQP9,"205568_at, in ethanol solution vs untreated",2.27
same,Fold change ZC3H11A,"205787_x_at, in PBS vs untreated",1.95
same,Fold change MT3,"205970_at, in ethanol solution vs untreated",−2.05
same,Fold change TNFAIP6,"206025_s_at, in ethanol solution vs untreated",1.92
same,Fold change SFRS6,"206108_s_at, in PBS vs untreated",2.16
same,Fold change ADAMDEC1,in ethanol solution vs in PBS,2.41
same,Fold change ADAMDEC1,[1],2.87
same,Fold change PLA2G7,in ethanol solution vs in PBS,2.12
same,Fold change PLA2G7,[1],3.44
same,Fold change SERPINB7,"206421_s_at, in ethanol solution vs untreated",1.99
same,Fold change IL24,"206569_at, in ethanol solution vs untreated",1.97
same,Fold change CSF3,"207442_at, in ethanol solution vs untreated",2.14
same,Fold Change P4HA1,"207543_s_at, in ethanol solution vs in PBS",−2.20
same,Fold change HCK,in ethanol solution vs in PBS,1.93
same,Fold change HCK,[1],2.14
same,Fold change CASP2,"208050_s_at, in PBS vs untreated",2.04
